Laboratory results as given in ChEMBL document CHEMBL6083241, “The heterodimer of 2-amino-1,8-naphthyridine and 3-aminoisoquinoline binds to the CTG/CTG triad via hydrogen bonding” (Bioorg Med Chem Lett, 2024).
Active and inactive are the calls of the source. No cut-off for these calls is given here.

What was measured:
Format in all cases: nucleic-acid assay
CTG repeat expansion [1] = test: Binding affinity to dsDNA CTG/CTG triad (unknown origin) assessed as melting temperature at 50 uM […]
CTG repeat expansion [2] = test: Binding affinity to dsDNA CTG/CTG triad (unknown origin) assessed as change in melting temperature by […]
CTG repeat expansion [3] = test: Binding affinity to dsDNA CTG/CTG triad (unknown origin) assessed as decrease in imino proton signals by NMR analysis
CTG repeat expansion [4] = test: Binding affinity to dsDNA CTG/CTG motif (unknown origin) assessed as dissociation constant measured every 2 mins by ITC analysis
CTG repeat expansion [5] = test: Binding affinity to (CTG)9 repeat DNA (unknown origin) assessed as increase in band intensity at 20 to 60 uM by circular dichroism analysis; details: dose 20-60 µM
CAG/CTG motif [6] = test: Binding affinity to dsDNA CAG/CTG motif (unknown origin) assessed as melting temperature at 50 uM […] (reference value: 38.5 +/-0.4 degreeC)
CGG repeat expansion [7] = test: Binding affinity to dsDNA CGG/CGG triad (unknown origin) measured upto 50 mins by ITC analysis
CAG/CTG motif [8] = test: Binding affinity to dsDNA CAG/CTG motif (unknown origin) assessed as change in melting temperature at 50 uM […]
CCG repeat expansion [9] = test: Binding affinity to dsDNA CCG/CCG motif (unknown origin) assessed as change in melting temperature at 50 uM […]
CCG repeat expansion [10] = test: Binding affinity to dsDNA CCG/CCG triad (unknown origin) assessed as increase in band intensity at 50 uM by circular dichroism analysis
CGG repeat expansion [11] = test: Binding affinity to dsDNA CGG/CGG motif (unknown origin) assessed as melting temperature at 50 uM […] (reference value: 28.2 +/-0.3 degreeC)
CCG repeat expansion [12] = test: Binding affinity to dsDNA CCG/CCG motif (unknown origin) assessed as melting temperature at 50 uM […] (reference value: 21.6 +/-0.2 degreeC)
CCG/CGG motif [13] = test: Binding affinity to dsDNA CCG/CGG motif (unknown origin) assessed as change in melting temperature at 50 uM […]
CTG repeat expansion [14] = test: Binding affinity to dsDNA CTG/CTG motif (unknown origin) assessed as change in enthalpy measured every 2 mins by ITC analysis
CTG repeat expansion [15] = test: Binding affinity to dsDNA CTG/CTG motif (unknown origin) assessed as gibbs free energy change measured every 2 mins by ITC analysis
TTT/ATA motif [16] = test: Binding affinity to dsDNA TTT/ATA motif (unknown origin) assessed as change in melting temperature at 50 uM […]
CGG repeat expansion [17] = test: Binding affinity to dsDNA CGG/CGG triad (unknown origin) assessed as increase in band intensity at 50 uM by circular dichroism analysis
CCG/CGG motif [18] = test: Binding affinity to dsDNA CCG/CGG motif (unknown origin) assessed as melting temperature at 50 uM […] (reference value: 44.8 +/-0.5 degreeC)
CTG repeat expansion [19] = test: Binding affinity to dsDNA CTG/CTG triad (unknown origin) assessed as increase in band intensity at 50 uM by circular dichroism analysis
CGG repeat expansion [20] = test: Binding affinity to dsDNA CGG/CGG motif (unknown origin) assessed as change in melting temperature at 50 uM […]
CTG repeat expansion [21] = test: Binding affinity to dsDNA CTG/CTG motif (unknown origin) assessed as change in entropy measured every 2 mins by ITC analysis
CAG repeat expansion [22] = test: Binding affinity to dsDNA CAG/CAG motif (unknown origin) assessed as melting temperature at 50 uM […] (reference value: 21.8 +/-0.2 degreeC)
TTT/ATA motif [23] = test: Binding affinity to dsDNA TTT/ATA motif (unknown origin) assessed as melting temperature at 50 uM […] (reference value: 16.6 +/-0.2 degreeC)
CAG repeat expansion [24] = test: Binding affinity to dsDNA CAG/CAG triad (unknown origin) assessed as increase in band intensity at 50 uM by circular dichroism analysis
CAG repeat expansion [25] = test: Binding affinity to dsDNA CAG/CAG motif (unknown origin) assessed as change in melting temperature at 50 uM […]
CTG repeat expansion [26] = test: Binding affinity to dsDNA CTG/CTG triad (unknown origin) assessed as increase in band intensity by circular dichroism analysis; details: dose 20-60 µM

Cc1ccc2ccc(NC(=O)OCCCN)nc2n1 gave a Tm (CTG repeat expansion [1]) of 28 °C and a ΔTm (CTG repeat expansion [2]) of 0.2 °C.
Work on Cc1ccc2ccc(NC(=O)OCCCNCCCOC(=O)Nc3ccc4ccc(C)nc4n3)nc2n1 yielded a Tm (CTG repeat expansion [1]) of 27.9 °C and a ΔTm (CTG repeat expansion [2]) of 0.1 °C.
Work on Cc1ccc2ccc(NC(=O)OCCCNCCCOC(=O)Nc3ccccn3)nc2n1 yielded a Tm (CTG repeat expansion [1]) of 27.8 °C and a ΔTm (CTG repeat expansion [2]) of 0 °C.
Cc1ccc2ccc(NC(=O)OCCCNCCCOC(=O)Nc3ccc4ccccc4n3)nc2n1 showed a Tm (CTG repeat expansion [1]) of 27.7 °C and a ΔTm (CTG repeat expansion [2]) of -0.1 °C.
Molecule NCCCOC(=O)Nc1cc2ccccc2cn1 has a Tm (CTG repeat expansion [1]) of 28.1 °C and a ΔTm (CTG repeat expansion [2]) of 0.3 °C.
For Cc1ccc2ccc(NC(=O)OCCCNCCCOC(=O)Nc3cc4ccccc4cn3)nc2n1, the Activity (CTG repeat expansion [3]) was “Active”, the Kd (CTG repeat expansion [4]) was 1900 nM and the Activity (CTG repeat expansion [5]) was “Active”. The Tm (CAG/CTG motif [6]) was 38.2 °C, the Activity (CGG repeat expansion [7]) was “Active” and the ΔTm (CAG/CTG motif [8]) was -0.2 °C. The ΔTm (CCG repeat expansion [9]) was 2.5 °C, the Activity (CCG repeat expansion [10]) was “inactive” and the Tm (CGG repeat expansion [11]) was 32.1 °C. The Tm (CCG repeat expansion [12]) was 24.1 °C, the ΔTm (CCG/CGG motif [13]) was 0 °C and the deltaH (CTG repeat expansion [14]) was -37.8 kcal/mol. The deltaG (CTG repeat expansion [15]) was -7.8 kcal/mol, the ΔTm (TTT/ATA motif [16]) was 3.5 °C and the Activity (CGG repeat expansion [17]) was “inactive”. The Tm (CCG/CGG motif [18]) was 44.8 °C, the Activity (CTG repeat expansion [19]) was “Active” and the ΔTm (CGG repeat expansion [20]) was 3.9 °C. For the same molecule, the -TdeltaS (CTG repeat expansion [21]) was 29.2 kcal/mol, the Tm (CAG repeat expansion [22]) was 24.6 °C and the Tm (CTG repeat expansion [1]) was 33.6 °C. The Tm (TTT/ATA motif [23]) was 20.1 °C, the ΔTm (CTG repeat expansion [2]) was 5.8 °C and the Activity (CAG repeat expansion [24]) was “inactive”. The ΔTm (CAG repeat expansion [25]) was 2.8 °C and the Activity (CTG repeat expansion [26]) was “Dose-dependent-effect”.
